From patent publication US4066762A, “Derivatives of 7-(2-substituted-2-hydroxyiminoacetamido)-3-(1-substituted tetrazol-5-yl thiomethyl-3-cephem-4-carboxylic acid” (SmithKline Corporation, priority 1976, dated 1978)
In brackets after ≈: the same amount, converted by molar mass. Counter-ions that a name gives are not always drawn. Like-named read-outs stand apart in the source and are kept apart here.

Assays:
[1] = system: S. villaluz SK 70390; test: MIC in vitro, S. villaluz SK 70390 (G+); assay type: cell-based; conditions: read-out: MIC in vitro
Source text: (§1) Table 1 contains minimum inhibitory concentrations in μg./ml. of a number of representative compounds compared with standard agents.

[2] = system: Entero. aerogenes ATCC 13048; test: MIC in vitro, Entero. aerogenes ATCC 13048 (G-); assay type: cell-based; conditions: Klebsiella aerogenes
Source text: as §1

[3] = system: Serratia Marcescens ATCC 13880; test: MIC in vitro, Serratia Marcescens ATCC 13880 (G-); assay type: cell-based
Source text: as §1

[4] = system: E. coli 12140; test: standard in vivo mouse protection test, E. coli 12140; conditions: s.c.
Procedure: (§2) C is 7β-(syn-2-hydroxyimino-2-phenylacetamido)-3-(1-sulfomethyltetrazol-5-ylthiomethyl)-3-cephem-4-carboxylic acid disodium salt. […] 4200; 25 mg./kg. against E. coli 12140; Compound B 45 mg./kg. against Kleb. and 43, >50 against E. coli.

[5] = system: E. coli SK 12140; test: MIC in vitro, E. coli SK 12140 (G-); assay type: cell-based; conditions: Escherichia coli, SK12140
Source text: as §1

[6] = system: Pseudo Aeruginosa HH 63; test: MIC in vitro, Pseudo Aeruginosa HH 63 (G-); assay type: cell-based
Source text: as §1

[7] = system: S. Aureus SK 23390; test: MIC in vitro, S. Aureus SK 23390 (G+); assay type: cell-based; conditions: Staphylococcus aureus
Source text: as §1

[8] = system: Kleb. pneumoniae SK 1200; test: MIC in vitro, Kleb. pneumoniae SK 1200 (G-); assay type: cell-based; conditions: Klebsiella pneumoniae, SK1200
Source text: as §1

[9] = system: Kleb. pneumo. 4200; test: standard in vivo mouse protection test, Kleb. pneumo. 4200; conditions: sc
Procedure: as §2

[10] = system: S. Aureus HH 127; test: MIC in vitro, S. Aureus HH 127 (G+); assay type: cell-based; conditions: Staphylococcus aureus
Source text: as §1

[11] = system: Proteus morgani 179; test: MIC in vitro, Proteus morgani 179 (G-); assay type: cell-based
Source text: as §1

[12] = system: Kleb. pneumoniae SK 4200; test: MIC in vitro, Kleb. pneumoniae SK 4200 (G-); assay type: cell-based; conditions: Klebsiella pneumoniae, SK4200
Source text: as §1

[13] = system: Entero. cloacae HH 31254; test: MIC in vitro, Entero. cloacae HH 31254 (G-); assay type: cell-based; conditions: Enterobacter cloacae, HH31254
Source text: as §1

[14] = system: Strep. Faecalis HH 34358; test: MIC in vitro, Strep. Faecalis HH 34358 (G+); assay type: cell-based; conditions: for MIC: Enterococcus faecalis
Source text: as §1

[15] = system: E. coli HH 33779; test: MIC in vitro, E. coli HH 33779 (G-); assay type: cell-based; conditions: Escherichia coli, HH33779
Source text: as §1

[16] = system: Salmonella ATCC 12176; test: MIC in vitro, Salmonella ATCC 12176 (G-); assay type: cell-based; conditions: for MIC: Salmonella, ATCC12176, Salmonella ATCC 12176, G-
Source text: as §1

[17] = system: P. Mirabils PM 444; test: MIC in vitro, P. Mirabils PM 444 (G-); assay type: cell-based
Source text: as §1

[18] = ATCC13048, Entero. aerogenes ATCC 13048, G-, read-out: MIC in vitro
[19] = ATCC13880, Serratia Marcescens ATCC 13880, G-, read-out: MIC in vitro
[20] = Escherichia coli, 12140, sc, read-out: ED50
[21] = P. Mirabils PM 444, G-, read-out: MIC in vitro

Structure (SMILES) | MIC ([1]; S. villaluz SK 70390, G+) [mg/L] | MIC [2, 18] [mg/L] | MIC [3, 19] [mg/L] | ED50 [4, 20] [mg/kg] | MIC [5] [mg/L] | MIC [6] [mg/L] | MIC [7] [mg/L] | MIC [8] [mg/L] | ED50 [9] [mg/kg] | MIC [10] [mg/L] | MIC [11] [mg/L] | MIC [12] [mg/L] | MIC [13] [mg/L] | MIC [14] [mg/L] | MIC [15] [mg/L] | MIC [16] [mg/L] | MIC [17, 21] [mg/L] | other results
O=C(O)C1=C(CSc2nnnn2CS(=O)(=O)O)CS[C@@H]2[C@H](NC(=O)/C(=N\O)c3ccccc3)C(=O)N12 [Compound C, 7β-(syn-2-hydroxyimino-2-phenylacetamido)-3-(1-sulfomethyltetrazol-5-ylthiomethyl)-3-cephem-4-carboxylic acid disodium salt] | 100 | 6.3 | 12.5 | 25 | 1.6 | > 200 | 0.8 | 0.8 | 4.4 | 0.8 | 25 | 1.6 | 1.6 | 6.3 | 3.1 | 0.8 |  | 
Cc1nnc(SCC2=C(C(=O)O)N3C(=O)[C@@H](NC(=O)Cn4cnnn4)[C@H]3SC2)s1 [Cefazolin, reference compound] |  | 1.6 (≈ 3.52 µM) | > 200 |  | 0.8 (≈ 1.76 µM) | > 200 | 0.2 (≈ 0.44 µM) | 0.4 (≈ 0.88 µM) |  | 0.4 (≈ 0.88 µM) | 200 (≈ 440 µM) | 1.6 (≈ 3.52 µM) | 0.8 (≈ 1.76 µM) | 6.3 (≈ 13.9 µM) | 1.6 (≈ 3.52 µM) | 0.8 (≈ 1.76 µM) | 3.1 (≈ 6.82 µM) | 
CO[C@@]1(NC(=O)Cc2cccs2)C(=O)N2C(C(=O)O)=C(COC(N)=O)CS[C@@H]21 [Cefoxitin, reference compound] | 100 (≈ 234 µM) | 25 (≈ 58.5 µM) | 12.5 (≈ 29.2 µM) |  | 6.3 (≈ 14.7 µM) | > 200 | 3.1 (≈ 7.25 µM) | 3.1 (≈ 7.25 µM) |  | 1.6 (≈ 3.74 µM) | 12.5 (≈ 29.2 µM) | 6.3 (≈ 14.7 µM) | 6.3 (≈ 14.7 µM) | 200 (≈ 468 µM) | 12.5 (≈ 29.2 µM) | 3.1 (≈ 7.25 µM) | 6.3 (≈ 14.7 µM) | 
CO/N=C(\C(=O)N[C@@H]1C(=O)N2C(C(=O)O)=C(CSc3nnnn3CS(=O)(=O)O)CS[C@H]12)c1ccccc1 [Compound B, 7β-(syn-2-methoxyimino-2-phenylacetamido)-3-(1-sulfomethyltetrazol-5-ylthiomethyl)-3-cephem-4-carboxylic acid disodium salt] |  |  | 12.5 | 43 | 6.3 | 200 | 1.6 | 3.1 | 45 | 1.6 | 6.3 | 3.1 | 3.1 | 25 | 6.3 | 1.6 |  | MIC [1]: > 200 mg/L; MIC ([2]; ATCC13048, read-out: MIC in vitro): 12.5 mg/L; ED50 ([4]; disodium salt): > 50 mg/kg
CO/N=C(\C(=O)N[C@@H]1C(=O)N2C(C(=O)O)=C(COC(N)=O)CS[C@H]12)c1ccco1 [Cefuroxime, reference compound] | > 200 | 6.3 (≈ 14.8 µM) | 12.5 (≈ 29.5 µM) |  | 6.3 (≈ 14.8 µM) | > 200 | 1.6 (≈ 3.77 µM) | 3.1 (≈ 7.3 µM) |  | 0.8 (≈ 1.89 µM) | 50 (≈ 118 µM) | 6.3 (≈ 14.8 µM) | 3.1 (≈ 7.3 µM) | 12.5 (≈ 29.5 µM) | 6.3 (≈ 14.8 µM) | 3.1 (≈ 7.3 µM) | 1.6 (≈ 3.77 µM) | 
CO/N=C(\C(=O)N[C@@H]1C(=O)N2C(C(=O)O)=C(CSc3nnnn3CS(=O)(=O)O)CS[C@H]12)c1ccco1 [A, 7β-(syn-2-methoxyimino-2-α-furylacetamido)-3-(1-sulfomethyltetrazol-5-ylthiomethyl)-3-cephem-4-carboxylic acid disodium salt hydrate] | > 200 | 3.1 | 3.1 |  | 0.8 | 100 | 3.1 | 0.4 |  | 3.1 | 1.6 | 0.8 | 0.8 | 100 | 1.6 | 0.4 | 1.6 | MIC ([3]; Serratia marcescens, ATCC13880, read-out: MIC in vitro, Serratia Marcescens ATCC 13880, G-): 6.3 mg/L; MIC ([17]; read-out: MIC in vitro, P. Mirabils PM 444, G-): 0.2 mg/L; MIC in vitro ([14]; disodium salt hydrate): 200 mg/L; MIC in vitro ([16]; Salmonella ATCC 12176, G-, disodium salt hydrate): 0.8 mg/L
